“And” between values parts separate entries of the source, which are not always exact repeats. Equal values may be shown once.
Experiments:
Staph. aureus = test: Experimental bacterial infection in mice, subcutaneous ED50; type: in vivo; conditions: two doses subcutaneously
Method: (§1) All of the A41030 factors tested have shown in vivo antimicrobial activity against experimental bacterial infections. When two doses of test compound were administered subcutaneously to mice in illustrative infections, the activity observed is measured as an ED50 value [effective dose in mg./kg. to protect fifty percent of the test animals: See Warren Wick, et al., J. Bacteriol. 81, 233-235 (1961)].

S. pyogenes = test: as above; type: in vivo; conditions: two doses subcutaneously
Method: as §1

S. pneumoniae = test: as above; type: in vivo; conditions: two doses subcutaneously
Method: as §1

[1] = test system: Peptococcus asaccharolyticus; test: MIC anaerobic bacteria, agar-dilution; type: cell-based; conditions: Peptococcus asaccharolyticus 1302
Staphylococcus aureus = test: MIC aerobic bacteria, standard agar-dilution assay; type: cell-based

A41030 factor B was tested, and the ED50 (Staph. aureus) was < 0.43 mg/kg, the ED50 (S. pyogenes) was 1.4 mg/kg and the ED50 (S. pneumoniae) was 1.4 mg/kg. The MIC [1] was ≤ 0.25 µg/mL, the MIC (Staphylococcus aureus; Staphylococcus aureus S13E, agar-dilution, 24 hours) was 0.125 µg/mL and the MIC (Staphylococcus aureus; in µg/mL) was 0.125 and 0.25.
